Assay results as given in paper PMC7311426, “An amphipathic peptide with antibiotic activity against multidrug-resistant Gram-negative bacteria” (Nature Communications, 2020).

Assays:
[1] = tested on: E. coli (AID#172 & ATCC 25922); assay: microbe, parasite or virus in culture; assay type: cell-based, Escherichia coli
Protocol: (§1) The test media was cation-adjusted MHB (CAMHB, Becton Dickinson) supplemented with 2% Noble Agar (Becton Dickinson) and additionally for AA139 with 0.1% BSA. The agar dilution MIC values were determined as recommended by Clinical and Laboratory Standards Institute (CLSI)[47]. […] The inoculum for the spontaneous mutation plates targeted 10^9 to 10^10 colony-forming units (CFU) per plate. The viable count of each suspension was determined by plating serial ten-fold dilutions onto MHB/NA in duplicate. In addition, agar plates without drug were inoculated as positive controls. Plates were inspected for growth at both 24 and 48 h. Colony counts were determined manually. Using the counts at 48 h, the spontaneous mutation frequency was calculated using the following equation: (average number of colonies from duplicate selection plates)/(total number of cells inoculated onto each plate). If there were no colonies on the antibiotic selection plates, the spontaneous mutation frequency was reported as less than the frequency observed with one colony to indicate that the spontaneous mutation frequency was less than the limit of detection (one CFU).

K. pneumoniae = assay: microbe, parasite or virus in culture; assay type: cell-based, Klebsiella pneumoniae
E. coli ATCC 25922 = assay: microbe, parasite or virus in culture; assay type: cell-based, Escherichia coli; set-up: MIC, Survanta (5%) replicates: unit not given beside the values; settings: for MIC, Survanta (5%) replicates: BMD with 5% Survanta lung surfactant
Procedure, shortened: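 Broth microdilution MIC in Mueller Hinton broth, 12-point 2-fold series from 128 or 64 down to 0.06 or 0.03 μg mL^−1, 5 × 10^5 CFU mL^−1 inoculum. Read visually after 18-20 h at 37 °C without shaking; n ≥ 6. Additional tests in CAMHB, and in MHB with 1% agarose.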

E. coli = tested on: E. coli; set-up: method as in Hasman H, et al. Euro. Surveill. (2015) 20:49; settings: E. coli ESBL20150072, mcr-1 pos; ESBL; CAMHB; comparator antibiotics; ref Hasman H, et al. Euro. Surveill. (2015) 20:49; cited from earlier work
[2] = tested on: P. aeruginosa (UNT138-1 & ATCC 27853); assay: microbe, parasite or virus in culture; assay type: cell-based, Pseudomonas aeruginosa
Protocol: as §1

P. aeruginosa = assay: microbe, parasite or virus in culture; assay type: cell-based, Pseudomonas aeruginosa; set-up: MIC, Survanta (5%) replicates: unit not given beside the values
[3] = K. pneumoniae ATCC 700603 ESBL, OXA-2/SHV-18, n=2 to 6, mode or median
[4] = P. aeruginosa ATCC 27853 control strain, n=2 to 6, mode or median
[5] = P. aeruginosa FADDI-070 MDR, PmxR, n=2 to 6, mode or median

## colistin
[1]; E. coli AID#172
  Noble agar dilution MIC: 1 µg/mL
[1]; E. coli AID#172, counts at 48 h, >TC = colonies too numerous to count
  Spontaneous frequency of resistance at 4× MIC: >TC
[1]; E. coli ATCC 25922
  Agar (Noble) Dilution MIC: 1 µg/mL
  Noble agar dilution MIC: 1 µg/mL
K. pneumoniae; K. pneumoniae ATCC 13883, type strain, BMD with 50% human serum, replicate 1
  MIC, Serum (50%) replicates: ≤0.03
K. pneumoniae; K. pneumoniae ATCC 13883, type strain, BMD with 50% human serum, replicate 2
  MIC, Serum (50%) replicates: ≤0.03
K. pneumoniae; K. pneumoniae ATCC 13883, type strain, BMD with 50% human serum, where n=2 differs the higher value is recorded
  MIC, Serum (50%): ≤0.03
K. pneumoniae; K. pneumoniae ATCC 13883 type strain, n=2 to 6, mode or median
  MIC, Serum (50%): ≤ 0.03 µg/mL
K. pneumoniae; K. pneumoniae ATCC 700603, ESBL, OXA-2/SHV-18, BMD with 5% Survanta lung surfactant, mode, or median where no mode, n=4 to 6, where n=2 differs the higher value
  MIC, Survanta (5%): 0.125
K. pneumoniae; K. pneumoniae ATCC 700603, ESBL, OXA-2/SHV-18, BMD with 5% Survanta lung surfactant, replicate 1
  MIC, Survanta (5%) replicates: 1
K. pneumoniae; K. pneumoniae ATCC 700603, ESBL, OXA-2/SHV-18, BMD with 5% Survanta lung surfactant, replicate 2
  MIC, Survanta (5%) replicates: 0.5
K. pneumoniae; K. pneumoniae ATCC 700603, ESBL, OXA-2/SHV-18, BMD with 5% Survanta lung surfactant, replicate 3
  MIC, Survanta (5%) replicates: 0.03
K. pneumoniae; K. pneumoniae ATCC 700603, ESBL, OXA-2/SHV-18, BMD with 5% Survanta lung surfactant, replicate 4
  MIC, Survanta (5%) replicates: 0.06
K. pneumoniae; K. pneumoniae ATCC 700603, ESBL, OXA-2/SHV-18, BMD with 50% human serum, mode, or median where no mode, n=4 to 6, where n=2 differs the higher value
  MIC, Serum (50%): 0.125
K. pneumoniae; K. pneumoniae ATCC 700603, ESBL, OXA-2/SHV-18, BMD with 50% human serum, replicate 1
  MIC, Serum (50%) replicates: 0.25
K. pneumoniae; K. pneumoniae ATCC 700603, ESBL, OXA-2/SHV-18, BMD with 50% human serum, replicate 2
  MIC, Serum (50%) replicates: 0.25
K. pneumoniae; K. pneumoniae ATCC 700603, ESBL, OXA-2/SHV-18, BMD with 50% human serum, replicate 3
  MIC, Serum (50%) replicates: 0.031
K. pneumoniae; K. pneumoniae ATCC 700603, ESBL, OXA-2/SHV-18, BMD with 50% human serum, replicate 4
  MIC, Serum (50%) replicates: 0.063
K. pneumoniae; K. pneumoniae ATCC 700603, ESBL, OXA-2/SHV-18, BMD with 50% human serum, replicate 5
  MIC, Serum (50%) replicates: 0.031
K. pneumoniae; K. pneumoniae ATCC 700603, ESBL, OXA-2/SHV-18, BMD with 50% human serum, replicate 6
  MIC, Serum (50%) replicates: ≤0.031
K. pneumoniae; [3]
  MIC, Serum (50%): 0.125 µg/mL
  MIC, Survanta (5%): 0.125 µg/mL
K. pneumoniae; K. pneumoniae BAA-2146, NDM-1, BMD with 5% Survanta lung surfactant, mode, or median where no mode, n=4 to 6, where n=2 differs the higher value
  MIC, Survanta (5%): 0.06
K. pneumoniae; K. pneumoniae BAA-2146, NDM-1, BMD with 5% Survanta lung surfactant, replicate 1
  MIC, Survanta (5%) replicates: 0.125
K. pneumoniae; K. pneumoniae BAA-2146, NDM-1, BMD with 5% Survanta lung surfactant, replicate 2
  MIC, Survanta (5%) replicates: 0.125
K. pneumoniae; K. pneumoniae BAA-2146, NDM-1, BMD with 5% Survanta lung surfactant, replicate 3
  MIC, Survanta (5%) replicates: ≤0.03
K. pneumoniae; K. pneumoniae BAA-2146, NDM-1, BMD with 5% Survanta lung surfactant, replicate 4
  MIC, Survanta (5%) replicates: ≤0.03
K. pneumoniae; K. pneumoniae BAA-2146 NDM-1, n=2 to 6, mode or median
  MIC, Survanta (5%): 0.06 µg/mL
E. coli ATCC 25922; E. coli ATCC 25922, FDA control strain, replicate 1
  MIC, Survanta (5%) replicates: 0.06
E. coli ATCC 25922; E. coli ATCC 25922, FDA control strain, replicate 2
  MIC, Survanta (5%) replicates: 0.06
E. coli ATCC 25922; E. coli ATCC 25922, FDA control strain, replicate 3
  MIC, Survanta (5%) replicates: ≤0.03
E. coli ATCC 25922; E. coli ATCC 25922, FDA control strain, replicate 4
  MIC, Survanta (5%) replicates: ≤0.03
E. coli ATCC 25922; E. coli ATCC 25922, FDA control strain, BMD with 50% human serum, mode, or median where no mode, n=4 to 6, where n=2 differs the higher value
  MIC, Serum (50%): ≤0.03
E. coli ATCC 25922; E. coli ATCC 25922, FDA control strain, BMD with 50% human serum, replicate 1
  MIC, Serum (50%) replicates: ≤0.03
E. coli ATCC 25922; E. coli ATCC 25922, FDA control strain, BMD with 50% human serum, replicate 2
  MIC, Serum (50%) replicates: ≤0.03
E. coli ATCC 25922; E. coli ATCC 25922, FDA control strain, BMD with 50% human serum, replicate 3
  MIC, Serum (50%) replicates: 0.125
E. coli ATCC 25922; E. coli ATCC 25922, FDA control strain, BMD with 50% human serum, replicate 4
  MIC, Serum (50%) replicates: 0.063
E. coli ATCC 25922; E. coli ATCC 25922, FDA control strain, BMD with 50% human serum, replicate 5
  MIC, Serum (50%) replicates: ≤0.03
E. coli ATCC 25922; E. coli ATCC 25922, FDA control strain, BMD with 50% human serum, replicate 6
  MIC, Serum (50%) replicates: ≤0.03
E. coli ATCC 25922; E. coli ATCC 25922, MHB + 50% (v/v) human serum, n=2 to 6, mode or median
  MIC, Serum (50%): ≤ 0.03 µg/mL
E. coli
  BMD MIC: >4 µg/mL
[2]; P. aeruginosa ATCC 27853
  Agar (Noble) Dilution MIC: 2 µg/mL
  Noble agar dilution MIC: 2 µg/mL
[2]; P. aeruginosa UNT138-1
  Noble agar dilution MIC: 2 µg/mL
P. aeruginosa; P. aeruginosa ATCC 27853, control strain, BMD with 5% Survanta lung surfactant, mode, or median where no mode, n=4 to 6, where n=2 differs the higher value
  MIC, Survanta (5%): 0.25
P. aeruginosa; P. aeruginosa ATCC 27853, control strain, BMD with 5% Survanta lung surfactant, replicate 1
  MIC, Survanta (5%) replicates: 0.5
P. aeruginosa; P. aeruginosa ATCC 27853, control strain, BMD with 5% Survanta lung surfactant, replicate 2
  MIC, Survanta (5%) replicates: 0.5
P. aeruginosa; P. aeruginosa ATCC 27853, control strain, BMD with 5% Survanta lung surfactant, replicate 3
  MIC, Survanta (5%) replicates: 0.125
P. aeruginosa; P. aeruginosa ATCC 27853, control strain, BMD with 5% Survanta lung surfactant, replicate 4
  MIC, Survanta (5%) replicates: 0.125
P. aeruginosa; P. aeruginosa ATCC 27853, control strain, BMD with 50% human serum, mode, or median where no mode, n=4 to 6, where n=2 differs the higher value
  MIC, Serum (50%): 0.25
P. aeruginosa; P. aeruginosa ATCC 27853, control strain, BMD with 50% human serum, replicate 1
  MIC, Serum (50%) replicates: 0.5
P. aeruginosa; P. aeruginosa ATCC 27853, control strain, BMD with 50% human serum, replicate 2
  MIC, Serum (50%) replicates: 0.5
P. aeruginosa; P. aeruginosa ATCC 27853, control strain, BMD with 50% human serum, replicate 3
  MIC, Serum (50%) replicates: 0.25
P. aeruginosa; P. aeruginosa ATCC 27853, control strain, BMD with 50% human serum, replicate 4
  MIC, Serum (50%) replicates: 0.25
P. aeruginosa; P. aeruginosa ATCC 27853, control strain, BMD with 50% human serum, replicate 5
  MIC, Serum (50%) replicates: 0.125
P. aeruginosa; P. aeruginosa ATCC 27853, control strain, BMD with 50% human serum, replicate 6
  MIC, Serum (50%) replicates: 0.125
P. aeruginosa; [4]
  MIC, Serum (50%): 0.25 µg/mL
  MIC, Survanta (5%): 0.25 µg/mL
P. aeruginosa; P. aeruginosa FADDI-070, MDR, PmxR, BMD with 5% Survanta lung surfactant, mode, or median where no mode, n=4 to 6, where n=2 differs the higher value
  MIC, Survanta (5%): ≥64
P. aeruginosa; P. aeruginosa FADDI-070, MDR, PmxR, BMD with 5% Survanta lung surfactant, replicate 1
  MIC, Survanta (5%) replicates: 64
P. aeruginosa; P. aeruginosa FADDI-070, MDR, PmxR, BMD with 5% Survanta lung surfactant, replicate 2
  MIC, Survanta (5%) replicates: 64
P. aeruginosa; P. aeruginosa FADDI-070, MDR, PmxR, BMD with 5% Survanta lung surfactant, replicate 3
  MIC, Survanta (5%) replicates: >64
P. aeruginosa; P. aeruginosa FADDI-070, MDR, PmxR, BMD with 5% Survanta lung surfactant, replicate 4
  MIC, Survanta (5%) replicates: >64
P. aeruginosa; P. aeruginosa FADDI-070, MDR, PmxR, BMD with 50% human serum, replicate 1
  MIC, Serum (50%) replicates: 0.25
P. aeruginosa; P. aeruginosa FADDI-070, MDR, PmxR, BMD with 50% human serum, replicate 2
  MIC, Serum (50%) replicates: 0.125
P. aeruginosa; P. aeruginosa FADDI-070, MDR, PmxR, BMD with 50% human serum, where n=2 differs the higher value is recorded
  MIC, Serum (50%): 0.25
P. aeruginosa; [5]
  MIC, Serum (50%): 0.25 µg/mL
  MIC, Survanta (5%): ≥ 64 µg/mL
